Data published in US20260258038A1 (priority 2023, published 2026).

Key:
Phytophthora infestans = assay: whole plant or invertebrate; assay type: in vivo; conditions: in Solanum lycopersicum, foliar, read-out: control of Phytophthora infestans (percent disease control compared to untreated)
Pythium ultimum = Pythium ultimum / liquid culture (seedling damping off); assay type: cell-based; conditions: Globisporangium ultimum, liquid culture in PDB, 24° C., 2-3 days after application, read-out: control of Pythium ultimum (inhibition of growth, photometric)
Protocol: Pythium ultimum/Liquid Culture (Seedling Damping Off)
Mycelia fragments and oospores of a newly grown liquid culture of the fungus are directly mixed into nutrient broth (PDB potato dextrose broth). After placing a (DMSO) solution of test compound into a microtiter plate (96-well format), the nutrient broth containing the fungal mycelia/spore mixture is added. The test plates are incubated at 24° C. and the inhibition of growth is determined photometrically 2-3 days after application.

Plasmopara viticola = assay: whole plant or invertebrate; assay type: in vivo; conditions: foliar, read-out: control of Plasmopara viticola (percent disease control compared to untreated)

COC(=O)Nc1ccc(-c2cnc3ccc(N(C)C(=O)c4ccc(F)c(OC)c4)cn23)cn1 [Compound 26, methyl N-[5-[6-[(4-fluoro-3-methoxy-benzoyl)-methyl-amino]imidazo[1,2-a]pyridin-3-yl]-2-pyridyl]carbamate]
≥ 80%: pest or weed control at 200 ppm (Phytophthora infestans) | inhibition at 20 ppm (Pythium ultimum) | pest or weed control at 200 ppm (Plasmopara viticola)

COC(=O)Nc1ccc(-c2cnc3c(C)cc(N(C)C(=O)c4ccc(Cl)c(C)c4)cn23)cn1 [Compound 41, methyl N-[5-[6-[(4-chloro-3-methyl-benzoyl)-methyl-amino]-8-methyl-imidazo[1,2-a]pyridin-3-yl]-2-pyridyl]carbamate]
≥ 80%: pest or weed control at 200 ppm (Phytophthora infestans) | inhibition at 20 ppm (Pythium ultimum) | pest or weed control at 200 ppm (Plasmopara viticola)

COC(=O)Nc1ccc(-c2cnc3c(C)cc(N(C)C(=O)c4ccc(F)cc4)cn23)cn1 [Compound 45, methyl N-[5-[6-[(4-fluorobenzoyl)-methyl-amino]-8-methyl-imidazo[1,2-a]pyridin-3-yl]-2-pyridyl]carbamate]
≥ 80%: pest or weed control at 200 ppm (Phytophthora infestans) | inhibition at 20 ppm (Pythium ultimum) | pest or weed control at 200 ppm (Plasmopara viticola)

COC(=O)Nc1ccc(-c2cnc3c(C)cc(N(C)C(=O)c4ccc(C#N)cc4)cn23)cn1 [Compound 47, methyl N-[5-[6-[(4-cyanobenzoyl)-methyl-amino]-8-methyl-imidazo[1,2-a]pyridin-3-yl]-2-pyridyl]carbamate]
≥ 80%: pest or weed control at 200 ppm (Phytophthora infestans) | inhibition at 20 ppm (Pythium ultimum) | pest or weed control at 200 ppm (Plasmopara viticola)

COC(=O)Nc1ccc(-c2cnc3c(C)cc(N(C)C(=O)c4ccc(Cl)cc4)cn23)cn1 [Compound 49, methyl N-[5-[6-[(4-chlorobenzoyl)-methyl-amino]-8-methyl-imidazo[1,2-a]pyridin-3-yl]-2-pyridyl]carbamate]
≥ 80%: pest or weed control at 200 ppm (Phytophthora infestans) | inhibition at 20 ppm (Pythium ultimum) | pest or weed control at 200 ppm (Plasmopara viticola)

COC(=O)Nc1ccc(-c2cnc3c(C)cc(N(C)C(=O)c4cccc(OC)c4)cn23)cn1 [Compound 53, methyl N-[5-[6-[(3-methoxybenzoyl)-methyl-amino]-8-methyl-imidazo[1,2-a]pyridin-3-yl]-2-pyridyl]carbamate]
≥ 80%: pest or weed control at 200 ppm (Phytophthora infestans) | inhibition at 20 ppm (Pythium ultimum) | pest or weed control at 200 ppm (Plasmopara viticola)

COC(=O)Nc1ccc(-c2cnc3c(C)cc(N(C)C(=O)c4ccc(F)cc4F)cn23)cn1 [Compound 54, methyl N-[5-[6-[(2,4-difluorobenzoyl)-methyl-amino]-8-methyl-imidazo[1,2-a]pyridin-3-yl]-2-pyridyl]carbamate]
≥ 80%: pest or weed control at 200 ppm (Phytophthora infestans) | inhibition at 20 ppm (Pythium ultimum) | pest or weed control at 200 ppm (Plasmopara viticola)

COC(=O)Nc1ccc(-c2cnc3c(C#N)cc(N(C)C(=O)c4ccc(F)c(OC)c4)cn23)cn1 [Compound 55, methyl N-[5-[8-cyano-6-[(4-fluoro-3-methoxy-benzoyl)-methyl-amino]imidazo[1,2-a]pyridin-3-yl]-2-pyridyl]carbamate]
≥ 80%: pest or weed control at 200 ppm (Phytophthora infestans) | inhibition at 20 ppm (Pythium ultimum) | pest or weed control at 200 ppm (Plasmopara viticola)

COC(=O)Nc1ccc(-c2cnc3c(C4CC4)cc(N(C)C(=O)c4ccc(F)c(OC)c4)cn23)cn1 [Compound 56, methyl N-[5-[8-cyclopropyl-6-[(4-fluoro-3-methoxy-benzoyl)-methyl-amino]imidazo[1,2-a]pyridin-3-yl]-2-pyridyl]carbamate]
≥ 80%: pest or weed control at 200 ppm (Phytophthora infestans) | inhibition at 20 ppm (Pythium ultimum) | pest or weed control at 200 ppm (Plasmopara viticola)

CCc1cc(N(C)C(=O)c2ccc(F)c(OC)c2)cn2c(-c3ccc(NC(=O)OC)nc3)cnc12 [Compound 57, methyl N-[5-[8-ethyl-6-[(4-fluoro-3-methoxy-benzoyl)-methyl-amino]imidazo[1,2-a]pyridin-3-yl]-2-pyridyl]carbamate]
≥ 80%: pest or weed control at 200 ppm (Phytophthora infestans) | inhibition at 20 ppm (Pythium ultimum) | pest or weed control at 200 ppm (Plasmopara viticola)

C=CCCc1cc(N(C)C(=O)c2ccc(F)c(OC)c2)cn2c(-c3ccc(NC(=O)OC)nc3)cnc12 [Compound 58, methyl N-[5-[8-but-3-enyl-6-[(4-fluoro-3-methoxy-benzoyl)-methyl-amino]imidazo[1,2-a]pyridin-3-yl]-2-pyridyl]carbamate]
≥ 80%: pest or weed control at 200 ppm (Phytophthora infestans) | inhibition at 20 ppm (Pythium ultimum) | pest or weed control at 200 ppm (Plasmopara viticola)

COC(=O)Nc1ccc(-c2cnc3c(Br)cc(N(C)C(=O)c4ccc(F)c(OC)c4)cn23)cn1 [Compound 60, methyl N-[5-[8-bromo-6-[(4-fluoro-3-methoxy-benzoyl)-methyl-amino]imidazo[1,2-a]pyridin-3-yl]-2-pyridyl]carbamate]
≥ 80%: pest or weed control at 200 ppm (Phytophthora infestans) | inhibition at 20 ppm (Pythium ultimum) | pest or weed control at 200 ppm (Plasmopara viticola)
